{"source": "ChEMBL document CHEMBL1759855", "about": "“Synthesis and innate immunosuppressive effect of 1,2-cyclopentanediol derivatives” (Eur J Med Chem, 2011)", "key": {"[1]": {"experiment": "Cytotoxicity against Drosophila S2 cells by MTT assay", "format": "cell-based", "details": "Drosophila melanogaster"}, "Drosophila": {"tested_on": "Drosophila", "experiment": "Ex vivo immunosuppressive activity in Drosophila larvae assessed as inhibition of IMD signaling pathway by beta-galactosidase reporter gene assay", "format": "functional, organism-based"}, "HUVEC [2]": {"tested_on": "HUVEC", "experiment": "Cytotoxicity against human HUVEC assessed as cell viability at 50 ug/ml", "format": "cell-based"}, "HUVEC [3]": {"tested_on": "HUVEC", "experiment": "Immunosuppressive activity in human HUVEC assessed as inhibition of TNF-alpha-induced IL8 production at 50 ug/mL after 12 hrs by ELISA relative to control", "format": "functional", "parameters": "scale not given: the % may be the effect or the level left"}}}
{"compound": "O=C(/C=C/[C@H]1C[C@@H](O)[C@@H](O)C1)Nc1ccc(Cl)cc1", "values": [{"measurement": "EC50", "setting": "[1]", "value": "> 180", "unit": "µM"}, {"measurement": "EC50", "setting": "Drosophila", "value": "> 180", "unit": "µM"}]}
{"compound": "O=C(/C=C/[C@H]1C[C@@H](O)[C@@H](O)C1)Oc1ccccc1", "values": [{"measurement": "EC50", "setting": "[1]", "value": "> 200", "unit": "µM"}, {"measurement": "EC50", "setting": "Drosophila", "value": 100, "unit": "µM"}]}
{"compound": "COC(=O)/C=C/[C@H]1C[C@@H](O)[C@@H](O)C1", "values": [{"measurement": "EC50", "setting": "[1]", "value": "> 350", "unit": "µM"}, {"measurement": "EC50", "setting": "Drosophila", "value": "> 350", "unit": "µM"}]}
{"compound": "CCNC(=O)/C=C/[C@H]1C[C@@H](O)[C@@H](O)C1", "values": [{"measurement": "EC50", "setting": "[1]", "value": "> 250", "unit": "µM"}, {"measurement": "EC50", "setting": "Drosophila", "value": 250, "unit": "µM"}]}
{"compound": "CC(=O)c1ccc(NC(=O)/C=C/[C@H]2C[C@@H](O)[C@@H](O)C2)cc1", "values": [{"measurement": "EC50", "setting": "[1]", "value": "> 180", "unit": "µM"}, {"measurement": "EC50", "setting": "Drosophila", "value": "> 180", "unit": "µM"}]}
{"compound": "CCCCCC[C@H]1C[C@@H](O)[C@@H](O)C1", "values": [{"measurement": "EC50", "setting": "[1]", "value": 110, "unit": "µM"}, {"measurement": "EC50", "setting": "Drosophila", "value": 110, "unit": "µM"}]}
{"compound": "O=C(/C=C/[C@H]1C[C@@H](O)[C@@H](O)C1)NO", "values": [{"measurement": "EC50", "setting": "[1]", "value": "> 250", "unit": "µM"}, {"measurement": "EC50", "setting": "Drosophila", "value": 13, "unit": "µM"}]}
{"compound": "O=C(O)/C=C/[C@H]1C[C@@H](O)[C@@H](O)C1", "values": [{"measurement": "EC50", "setting": "[1]", "value": "> 350", "unit": "µM"}, {"measurement": "EC50", "setting": "Drosophila", "value": 110, "unit": "µM"}]}
{"compound": "CNC(=O)C[C@H]1C[C@@H](O)[C@@H](O)C1", "values": [{"measurement": "EC50", "setting": "[1]", "value": "> 250", "unit": "µM"}, {"measurement": "EC50", "setting": "Drosophila", "value": 55, "unit": "µM"}]}
{"compound": "O=C(/C=C/[C@H]1C[C@@H](O)[C@@H](O)C1)Nc1ccc(F)cc1", "values": [{"measurement": "EC50", "setting": "[1]", "value": "> 180", "unit": "µM"}, {"measurement": "EC50", "setting": "Drosophila", "value": "> 180", "unit": "µM"}]}
{"compound": "CNC(=O)/C=C/C(CCO)CCO", "values": [{"measurement": "EC50", "setting": "[1]", "value": "> 250", "unit": "µM"}, {"measurement": "EC50", "setting": "Drosophila", "value": "> 250", "unit": "µM"}]}
{"compound": "CCCCCCOC(=O)/C=C/[C@H]1C[C@@H](O)[C@@H](O)C1", "values": [{"measurement": "EC50", "setting": "[1]", "value": "> 350", "unit": "µM"}, {"measurement": "EC50", "setting": "Drosophila", "value": 150, "unit": "µM"}]}
{"compound": "O=C(/C=C/[C@H]1C[C@@H](O)[C@@H](O)C1)NC1CC1", "values": [{"measurement": "EC50", "setting": "[1]", "value": "> 250", "unit": "µM"}, {"measurement": "EC50", "setting": "Drosophila", "value": 240, "unit": "µM"}]}
{"compound": "CNC(=O)CCCC[C@H]1C[C@@H](O)[C@@H](O)C1", "values": [{"measurement": "EC50", "setting": "[1]", "value": "> 250", "unit": "µM"}, {"measurement": "EC50", "setting": "Drosophila", "value": "> 250", "unit": "µM"}]}
{"compound": "O=C(/C=C/[C@H]1C[C@@H](O)[C@@H](O)C1)Nc1ccc(Cl)c(Cl)c1", "values": [{"measurement": "EC50", "setting": "[1]", "value": "> 160", "unit": "µM"}, {"measurement": "EC50", "setting": "Drosophila", "value": 56, "unit": "µM"}]}
{"compound": "O=C(/C=C/[C@H]1C[C@@H](O)[C@@H](O)C1)Nc1ccc([N+](=O)[O-])cc1", "values": [{"measurement": "EC50", "setting": "[1]", "value": "> 170", "unit": "µM"}, {"measurement": "EC50", "setting": "Drosophila", "value": "> 170", "unit": "µM"}]}
{"compound": "O=C(/C=C/[C@H]1C[C@@H](O)[C@@H](O)C1)Nc1ccc(C(F)(F)F)cc1", "values": [{"measurement": "EC50", "setting": "[1]", "value": "> 160", "unit": "µM"}, {"measurement": "EC50", "setting": "Drosophila", "value": "> 160", "unit": "µM"}]}
{"compound": "CNC(=O)CCC[C@H]1C[C@@H](O)[C@@H](O)C1", "values": [{"measurement": "EC50", "setting": "[1]", "value": "> 250", "unit": "µM"}, {"measurement": "Activity", "setting": "HUVEC [2]", "value": "Non-toxic"}, {"measurement": "EC50", "setting": "Drosophila", "value": 8.4, "unit": "µM"}, {"measurement": "Activity", "setting": "HUVEC [3]", "value": 70, "unit": "%"}]}
{"compound": "COc1ccc(NC(=O)/C=C/[C@H]2C[C@@H](O)[C@@H](O)C2)cc1", "values": [{"measurement": "EC50", "setting": "[1]", "value": "> 180", "unit": "µM"}, {"measurement": "Activity", "setting": "HUVEC [2]", "value": "Toxic"}, {"measurement": "EC50", "setting": "Drosophila", "value": 3.1, "unit": "µM"}]}
{"compound": "O=C(/C=C/[C@H]1C[C@@H](O)[C@@H](O)C1)Nc1ccccc1", "values": [{"measurement": "EC50", "setting": "[1]", "value": "> 200", "unit": "µM"}, {"measurement": "Activity", "setting": "HUVEC [2]", "value": "Non-toxic"}, {"measurement": "EC50", "setting": "Drosophila", "value": 4.5, "unit": "µM"}, {"measurement": "Activity", "setting": "HUVEC [3]", "value": 70, "unit": "%"}]}
{"compound": "CNC(=O)CC[C@H]1C[C@@H](O)[C@@H](O)C1", "values": [{"measurement": "EC50", "setting": "[1]", "value": "> 250", "unit": "µM"}, {"measurement": "EC50", "setting": "Drosophila", "value": 15, "unit": "µM"}]}
{"compound": "O=C(/C=C/[C@H]1C[C@@H](O)[C@@H](O)C1)N1CCCCC1", "values": [{"measurement": "EC50", "setting": "[1]", "value": "> 250", "unit": "µM"}, {"measurement": "EC50", "setting": "Drosophila", "value": 180, "unit": "µM"}]}
{"compound": "CCOC(=O)/C=C/[C@H]1C[C@@H](O)[C@@H](O)C1", "values": [{"measurement": "EC50", "setting": "[1]", "value": "> 350", "unit": "µM"}, {"measurement": "EC50", "setting": "Drosophila", "value": 100, "unit": "µM"}]}
{"compound": "CN(C)c1ccc(NC(=O)/C=C/[C@H]2C[C@@H](O)[C@@H](O)C2)cc1", "values": [{"measurement": "EC50", "setting": "[1]", "value": "> 170", "unit": "µM"}, {"measurement": "EC50", "setting": "Drosophila", "value": 19, "unit": "µM"}]}
{"compound": "NC(=O)/C=C/[C@H]1C[C@@H](O)[C@@H](O)C1", "values": [{"measurement": "EC50", "setting": "[1]", "value": "> 250", "unit": "µM"}, {"measurement": "EC50", "setting": "Drosophila", "value": 19, "unit": "µM"}]}
{"compound": "CC(C)(C)c1ccc(NC(=O)/C=C/[C@H]2C[C@@H](O)[C@@H](O)C2)cc1", "values": [{"measurement": "EC50", "setting": "[1]", "value": "> 180", "unit": "µM"}, {"measurement": "Activity", "setting": "HUVEC [2]", "value": "Toxic"}, {"measurement": "EC50", "setting": "Drosophila", "value": 4.4, "unit": "µM"}]}
{"compound": "Cc1ccc(NC(=O)/C=C/[C@H]2C[C@@H](O)[C@@H](O)C2)cc1", "values": [{"measurement": "EC50", "setting": "[1]", "value": "> 190", "unit": "µM"}, {"measurement": "EC50", "setting": "Drosophila", "value": 190, "unit": "µM"}]}
{"compound": "CCCCNC(=O)/C=C/[C@H]1C[C@@H](O)[C@@H](O)C1", "values": [{"measurement": "EC50", "setting": "[1]", "value": "> 250", "unit": "µM"}, {"measurement": "EC50", "setting": "Drosophila", "value": "> 250", "unit": "µM"}]}
{"compound": "CNS(=O)(=O)/C=C/[C@H]1C[C@@H](O)[C@@H](O)C1", "values": [{"measurement": "EC50", "setting": "[1]", "value": "> 250", "unit": "µM"}, {"measurement": "Activity", "setting": "HUVEC [2]", "value": "Non-toxic"}, {"measurement": "EC50", "setting": "Drosophila", "value": 4, "unit": "µM"}, {"measurement": "Activity", "setting": "HUVEC [3]", "value": 70, "unit": "%"}]}
{"compound": "CCC[C@H]1C[C@@H](O)[C@@H](O)C1", "values": [{"measurement": "EC50", "setting": "[1]", "value": "> 350", "unit": "µM"}, {"measurement": "EC50", "setting": "Drosophila", "value": 100, "unit": "µM"}]}
{"compound": "O=C(/C=C/[C@H]1C[C@@H](O)[C@@H](O)C1)Nc1ccncc1", "values": [{"measurement": "EC50", "setting": "[1]", "value": "> 200", "unit": "µM"}, {"measurement": "EC50", "setting": "Drosophila", "value": "> 20", "unit": "µM"}]}
{"compound": "C/C=C/[C@@H]1C[C@@H](O)[C@@H](O)C1", "values": [{"measurement": "EC50", "setting": "[1]", "value": "> 350", "unit": "µM"}, {"measurement": "EC50", "setting": "Drosophila", "value": 350, "unit": "µM"}]}
{"compound": "C/C=C/[C@H]1C[C@@H](O)[C@@H](O)C1", "values": [{"measurement": "EC50", "setting": "[1]", "value": "> 350", "unit": "µM"}, {"measurement": "EC50", "setting": "Drosophila", "value": 100, "unit": "µM"}]}
{"compound": "CNC(=O)/C=C/[C@H]1C[C@@H](O)[C@@H](O)C1", "values": [{"measurement": "EC50", "setting": "[1]", "value": "> 250", "unit": "µM"}, {"measurement": "Activity", "setting": "HUVEC [2]", "value": "Non-toxic"}, {"measurement": "EC50", "setting": "Drosophila", "value": 5.4, "unit": "µM"}, {"measurement": "Activity", "setting": "HUVEC [3]", "value": 70, "unit": "%"}]}
{"compound": "CN(C)C(=O)/C=C/[C@H]1C[C@@H](O)[C@@H](O)C1", "values": [{"measurement": "EC50", "setting": "[1]", "value": "> 250", "unit": "µM"}, {"measurement": "EC50", "setting": "Drosophila", "value": 120, "unit": "µM"}]}
